Where “and” joins values, the source holds several entries; their conditions need not be identical. Equal entries are not always repeated. Inconclusive results and toxic doses are left out.

This experiment has as its system B16 melanoma ip, C57BL/6 mice, median survival T/C. Kind of experiment: NCI In Vivo Anticancer Drug Screen. Data for tumor model B16 Melanoma (intraperitoneal) in C57BL/6 mice. Conditions: endpoint: median survival time, higher = longer survival. Here is the method: The antitumor activity of compounds was measured in mice bearing transplantable tumors. Survival or tumor size were measured and the results are expressed as the measurement made in the treated group (T) divided by the measurement made in the vehicle treated control group (C). The tumor model used in this assay is B16 Melanoma (intraperitoneal) in C57BL/6 mice

The mark [1] stands for this setting: dose: 10.0 mg/kg/injection, schedule: Q01DX009 (ip), vehicle: saline.
Where [2] appears, read: dose: 20.0 mg/kg/injection, schedule: Q01DX009 (ip), vehicle: saline.
The mark [3] stands for this setting: dose: 15.0 mg/kg/injection, schedule: Q01DX009 (ip), vehicle: saline.
Setting [4] is: dose: 5.0 mg/kg/injection, schedule: Q01DX009 (ip), vehicle: saline.
Setting [5] is: dose: 62.5 mg/kg/injection, schedule: Q01DX009 (ip), vehicle: saline.
[6] abbreviates: dose: 125.0 mg/kg/injection, schedule: Q01DX009 (ip), vehicle: saline.
Setting [7] is: dose: 250.0 mg/kg/injection, schedule: Q01DX009 (ip), vehicle: saline.
[8] abbreviates: dose: 31.3 mg/kg/injection, schedule: Q01DX009 (ip), vehicle: saline.
Setting [9] is: dose: 2.0 mg/kg/injection, schedule: Q01DX009 (ip), vehicle: saline.
Where [10] appears, read: dose: 25.0 mg/kg/injection, schedule: Q01DX009 (ip), vehicle: saline with Tween-80.
The mark [11] stands for this setting: dose: 100.0 mg/kg/injection, schedule: Q01DX009 (ip), vehicle: saline with Tween-80.
[12] abbreviates: dose: 6.25 mg/kg/injection, schedule: Q01DX009 (ip), vehicle: saline with Tween-80.
Where [13] appears, read: dose: 12.5 mg/kg/injection, schedule: Q01DX009 (ip), vehicle: saline with Tween-80.
Setting [14] is: dose: 25.0 mg/kg/injection, schedule: Q01DX009 (ip), vehicle: saline.
Setting [15] is: dose: 50.0 mg/kg/injection, schedule: Q01DX009 (ip), vehicle: saline.
Where [16] appears, read: dose: 100.0 mg/kg/injection, schedule: Q01DX009 (ip), vehicle: saline.

As to `O=c1[nH]c(=O)n(C2CC(O)C(CO)O2)cc1F` (stereo unspecified), the T/C under setting [1] was 113 % of control; the T/C under setting [2] was 120 % of control; the T/C (dose: 40.0 mg/kg/injection, schedule: Q01DX009 (ip), vehicle: saline) is 123 % of control; the T/C (dose: 80.0 mg/kg/injection, schedule: Q01DX009 (ip), vehicle: saline) is 154 % of control; the T/C (dose: 160.0 mg/kg/injection, schedule: Q01DX009 (ip), vehicle: saline) is 151 % of control.

On to `CC(CN1CC(=O)NC(=O)C1)N1CC(=O)NC(=O)C1` (stereo unspecified), for which the T/C by setting is: under setting [3], 109 % of control; (dose: 60.0 mg/kg/injection, schedule: Q01DX009 (ip), vehicle: saline) 90 % of control.

Take `O=C(O)c1[nH]c(=O)[nH]c(=O)c1F`: the T/C was 100 % of control (dose: 1.25 mg/kg/injection, schedule: Q01DX009 (ip), vehicle: saline); 106 % of control and 110 % of control (dose: 2.5 mg/kg/injection, schedule: Q01DX009 (ip), vehicle: saline); 100 % of control and 103 % of control under setting [4]; 87 % of control and 89 % of control under setting [1].

In the case of `CC1=C2C(=C[C@@](C)(CO)[C@@H]2O)C(=O)[C@](C)(O)C12CC2`, the T/C was 113 % of control (dose: 0.1 mg/kg/injection, schedule: Q01DX009 (ip), vehicle: saline) and 113 % of control (dose: 0.2 mg/kg/injection, schedule: Q01DX009 (ip), vehicle: saline).

In the case of `O=NN(CCCl)C(=O)NCCCl`, the T/C is, setting by setting: (dose: 7.5 mg/kg/injection, schedule: Q01DX009 (ip), vehicle: saline) 164 % of control and 213 % of control; under setting [3], 121 % of control.

As to `O=NN(CCF)C(=O)NC1CCS(=O)(=O)CC1`, the T/C (dose: 7.5 mg/kg/injection, schedule: Q01DX001 (ip), vehicle: saline) was 212 % of control; the T/C (dose: 15.0 mg/kg/injection, schedule: Q01DX001 (ip), vehicle: saline) was 200 % of control; the T/C (dose: 30.0 mg/kg/injection, schedule: Q01DX001 (ip), vehicle: saline) is 175 % of control.

`COC(N)=O`: the T/C by setting is: under setting [5], 100 % of control and 107 % of control; under setting [6], 103 % of control and 106 % of control; under setting [7], 100 % of control and 107 % of control; (dose: 500.0 mg/kg/injection, schedule: Q01DX009 (ip), vehicle: saline) 110 % of control.

On to `COc1cc(NS(C)(=O)=O)ccc1Nc1c2ccccc2nc2ccccc12`, for which the T/C (dose: 0.5 mg/kg/injection, schedule: Q01DX009 (ip), vehicle: water) was 160 % of control; the T/C (dose: 1.0 mg/kg/injection, schedule: Q01DX009 (ip), vehicle: Klucel (hydroxypropylcellulose) (HPC)) is 172 % of control; the T/C (dose: 2.0 mg/kg/injection, schedule: Q01DX009 (ip), vehicle: Klucel (hydroxypropylcellulose) (HPC)) is 179 % of control; the T/C (dose: 2.0 mg/kg/injection, schedule: Q01DX009 (ip), vehicle: water) was 222 % of control; the T/C (dose: 4.0 mg/kg/injection, schedule: Q01DX009 (ip), vehicle: water) is 246 % of control.

For `C=CCN(CC=C)c1ncnc2[nH]ncc12`, the T/C (dose: 15.6 mg/kg/injection, schedule: Q01DX009 (ip), vehicle: saline) was 105 % of control; the T/C under setting [8] is 100 % of control; the T/C under setting [5] is 102 % of control; the T/C under setting [6] is 102 % of control.

Take `OCC1OC(n2cnc3c(Cl)ncnc32)C(O)C1O` (stereo unspecified): the T/C runs as follows: under setting [8], 106 % of control and 107 % of control; under setting [5], 93 % of control and 100 % of control; under setting [6], 93 % of control and 100 % of control; under setting [7], 86 % of control and 100 % of control.

Consider `COc1cccc2c1C(=O)c1c(O)c3c(c(O)c1C2=O)C[C@@](O)(C(C)=O)C[C@@H]3OC1CC(N)C(O)C(C)O1` (stereo partly specified), for which the T/C was 177 % of control (dose: 0.25 mg/kg/injection, schedule: Q01DX009 (ip), vehicle: saline); 188 % of control (dose: 0.5 mg/kg/injection, schedule: Q01DX009 (ip), vehicle: saline); 277 % of control (dose: 1.0 mg/kg/injection, schedule: Q01DX009 (ip), vehicle: saline); 186 % of control under setting [9].

For the compound `CCN(CC)CCOc1ccc2c(c1)C(=O)c1cc(OCCN(CC)CC)ccc1-2`, the T/C reads like this: under setting [10], 103 % of control; (dose: 50.0 mg/kg/injection, schedule: Q01DX009 (ip), vehicle: saline with Tween-80) 92 % of control; under setting [11], 114 % of control.

On to `CC[C@H]1CN2CCc3cc(OC)c(OC)cc3[C@@H]2C[C@@H]1C[C@H]1NCCc2cc(OC)c(OC)cc21`, for which the T/C runs as follows: (dose: 1.0 mg/kg/injection, schedule: Q03DX005 (ip), vehicle: saline) 106 % of control; (dose: 2.0 mg/kg/injection, schedule: Q03DX005 (ip), vehicle: saline) 109 % of control; (dose: 16.0 mg/kg/injection, schedule: Q03DX005 (ip), vehicle: saline) 87 % of control.

As for `C/C(=C\COc1ccc2ccc(=O)oc2c1)C1=CC(=O)C(C)(C)O1`, the T/C runs as follows: under setting [11], 94 % of control; (dose: 200.0 mg/kg/injection, schedule: Q01DX009 (ip), vehicle: saline with Tween-80) 100 % of control; (dose: 400.0 mg/kg/injection, schedule: Q01DX009 (ip), vehicle: saline with Tween-80) 94 % of control.

In the case of `OC1CCCC2CCC[N-]C12.OC1CCCC2CCC[N-]C12.[O]=[V][OH]` (stereo unspecified), the T/C runs as follows: under setting [12], 107 % of control; under setting [13], 107 % of control; under setting [10], 107 % of control.

Consider `CC[C@]1(O)C[C@H]2CN(CCc3c([nH]c4ccccc34)[C@@](C(=O)OC)(c3cc4c(cc3OC)N(C=O)[C@H]3[C@@](O)(C(=O)OC)[C@H](OC(C)=O)[C@]5(CC)C=CCN6CC[C@]43[C@@H]65)C2)C1`, for which the T/C reads like this: (dose: 0.06 mg/kg/injection, schedule: Q01DX009 (ip), vehicle: saline) 182 % of control; (dose: 0.13 mg/kg/injection, schedule: Q01DX009 (ip), vehicle: saline) 189 % of control.

As for `O=C1CN(CCN2CC(=O)NC(=O)C2)CC(=O)N1`, for the setting “dose: 30.0 mg/kg/injection, schedule: Q01DX009 (ip), vehicle: saline”, the T/C is 150 % of control.

As to `O=c1[nH]cc(F)c(=O)[nH]1`, the T/C is, setting by setting: under setting [4], 113 % of control; under setting [1], 120 % of control; under setting [2], 123 % of control.

Consider `COc1cc(/C=N\O)nc(-c2ccccn2)c1`, for which the T/C is, setting by setting: under setting [14], 100 % of control; under setting [15], 106 % of control; under setting [16], 93 % of control.

`CCCC/C=C/CCCCCCCC(=O)OCCCCCCCCCCCCCCCC`: under “dose: 400.0 mg/kg/injection, schedule: Q01DX001 (ip), vehicle: saline with Tween-80”, the T/C is 86 % of control.

Consider `COc1cc([C@@H]2c3cc4c(cc3[C@H](O)[C@H]3COC(=O)[C@H]23)OCO4)cc(OC)c1OC`, for which the T/C is 106 % of control under setting [9]; 120 % of control (dose: 4.0 mg/kg/injection, schedule: Q01DX009 (ip), vehicle: saline); 113 % of control (dose: 8.0 mg/kg/injection, schedule: Q01DX009 (ip), vehicle: saline); 96 % of control (dose: 16.0 mg/kg/injection, schedule: Q01DX009 (ip), vehicle: saline).

As for `CN(C)CCCN1c2ccc(O)cc2Sc2ccc(Cl)cc21`, the T/C is, setting by setting: (dose: 6.25 mg/kg/injection, schedule: Q01DX009 (ip), vehicle: saline) 109 % of control; (dose: 12.5 mg/kg/injection, schedule: Q01DX009 (ip), vehicle: saline) 115 % of control; under setting [14], 103 % of control; under setting [15], 103 % of control and 106 % of control; under setting [16], 100 % of control.

With `COc1cc([C@@H]2c3cc4c(cc3C[C@H]3COC(=O)[C@@H]32)OCO4)cc(OC)c1OC`, the T/C is 110 % of control under setting [12] and 117 % of control under setting [13].

Regarding `CN(C)c1nc(N(C)C)nc(N(C)C)n1`, the T/C is 100 % of control (dose: 37.5 mg/kg/injection, schedule: Q01DX009 (ip), vehicle: saline); 103 % of control (dose: 75.0 mg/kg/injection, schedule: Q01DX009 (ip), vehicle: saline); 103 % of control (dose: 150.0 mg/kg/injection, schedule: Q01DX009 (ip), vehicle: saline); 103 % of control (dose: 300.0 mg/kg/injection, schedule: Q01DX009 (ip), vehicle: saline).
